In one experiment the test system is AMPK. Description: Measurement of AMPK activity by Western blot in C2C12 cells. It is filed as cell-based. More on the design: key to AMPK activity (degree of phosphorylation of serine-79 and threonine-172): fold increase in threonine-172 phosphorylation. The settings on record: 10 μM for 50 minutes; for AMPK activity (degree of phosphorylation of serine-79 and threonine-172): no superscript: Western blot of serine-79 and threonine-172 phosphorylation; for AMPK activity (class: degree of phosphorylation of threonine-172): strong/mild/weak. The gist of the method:
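Western blot readout of AMPK Thr-172 and ACC Ser-79 phosphorylation, normalised against ERK, served as the activity measure. Cells were C2C12 after differentiation, treated 50 minutes with 10 μM test material. Grading by Thr-172 increase: ≥3-fold strong, 1-3-fold mild, <1-fold weak.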
In general terms: Immunoblotting shows a protein as a band on a membrane.

Another experiment deals with C2C12 muscle cells. The experiment can be described thus: Analysis of glucose absorption (2-deoxyglucose) in differentiated C2C12 muscle cells. Type of experiment: cell-based. The settings on record: test materials 10 μM, times relative to control group. The procedure, abridged: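 Uptake of 0.2 μCi 2-deoxyglucose over 20 min, counted radiometrically in lysed cells. Before tracer, compounds (10 μM) were applied for 30 min to C2C12 cells differentiated 6 days in 1% serum and equilibrated 3 h in 5 mM glucose KRB.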

In the case of `c1ccc(-c2nc(NCC(c3ccccc3)c3ccccc3)c3ccccc3n2)cc1` [Compound 133, (2,2-Diphenylethyl)-(2-phenylquinazolino-4-yl)-amine], in the experiment on AMPK, the “AMPK activity (degree of phosphorylation of serine-79 and threonine-172)” value stood at 1.3; the “AMPK activity (class: degree of phosphorylation of threonine-172)” value is listed as “mild (“mild” means that the degree of phosphorylation of threonine-172 increased by 1 to 3 times)”. The Glucose absorption in the experiment on C2C12 muscle cells turned out to be 2.1.

Take `COc1ccc(CNc2nc(C3CC3)nc3ccccc23)cc1OC` [Compound 388, (2-Cyclopropylquinazolino-4-yl)-(3,4-dimethoxybenzyl)-amine]: the “AMPK activity (degree of phosphorylation of serine-79 and threonine-172)” value with AMPK worked out at 2.8. The molecule also showed a Glucose absorption in the experiment with C2C12 muscle cells of 1.2.

Take `COc1ccc(OC)c(CNc2nc(-c3ccccc3)nc3ccccc23)c1` [Compound 147, (2,5-Dimethoxybenzyl)-(2-phenylquinazolino-4-yl)-amine]: in the experiment with AMPK, the “AMPK activity (degree of phosphorylation of serine-79 and threonine-172)” value was determined as 1.8; the “AMPK activity (class: degree of phosphorylation of threonine-172)” value was “strong (“strong” means that the degree of phosphorylation of threonine-172 increased by 3 times or more)”. The molecule also gave a Glucose absorption in the experiment with C2C12 muscle cells of 1.3.

Consider `COc1ccc(OC)c(CNc2nc(C(C)C)nc3ccccc23)c1` [Compound 326, (2,5-Dimethoxybenzyl)-(2-isopropylquinazolino-4-yl)-amine], for which the “AMPK activity (degree of phosphorylation of serine-79 and threonine-172)” value with AMPK was 2.9. The molecule further gave a Glucose absorption with C2C12 muscle cells of 1.2.

On to `COc1ccc(CNc2nc(C(C)c3ccccc3)nc3ccccc23)c(OC)c1` (stereo not drawn) [Compound 379, (2,4-Dimethoxybenzyl)-[2-(1-phenylethyl)-quinazolino-4-yl]-amine], for which the “AMPK activity (degree of phosphorylation of serine-79 and threonine-172)” value in the experiment with AMPK was determined as 6.1. Besides, the Glucose absorption in the experiment with C2C12 muscle cells worked out at 1.1.

As for `c1ccc(-c2nc(NCCN3CCCCC3)c3ccccc3n2)cc1` [Compound 101, (2-Phenylquinazolino-4-yl)-(2-piperidino-1-ylethyl)-amine], in the experiment with AMPK, the “AMPK activity (class: degree of phosphorylation of threonine-172)” value is “weak (“weak” means that the degree of phosphorylation of threonine-172 increased by less than 1 time)”. Besides, the Glucose absorption in the experiment with C2C12 muscle cells is listed as 1.5.

For `COc1cccc(CNc2nc(Cc3ccccc3)nc3ccccc23)c1OC` [Compound 329, (2-Benzylquinazolino-4-yl)-(2,3-dimethoxybenzyl)-amine], in the experiment with AMPK, the “AMPK activity (degree of phosphorylation of serine-79 and threonine-172)” value was 4.2. This molecule gave a Glucose absorption in the experiment with C2C12 muscle cells of 1.8.

Consider `CCSc1nc(NCc2c(F)cccc2Cl)c2ccccc2n1` [Compound 49, (2-Chloro-6-fluorobenzyl)-(2-ethylsulfanylquinazolino-4-yl)-amine], for which the “AMPK activity (class: degree of phosphorylation of threonine-172)” value in the experiment on AMPK is “mild (“mild” means that the degree of phosphorylation of threonine-172 increased by 1 to 3 times)”. This molecule had a Glucose absorption in the experiment on C2C12 muscle cells of 1.8.

`COc1ccc(COc2nc(-c3ccccc3)nc3ccccc23)c(OC)c1` [Compound 273, 4-(2,4-Dimethoxybenzyloxy)-2-phenylquinazoline]: the “AMPK activity (degree of phosphorylation of serine-79 and threonine-172)” value in the experiment with AMPK is 1.5. Besides, the Glucose absorption in the experiment with C2C12 muscle cells is recorded as 0.7.

On to `COc1ccc(CNc2nc(Cc3ccccc3)nc3ccccc23)c(OC)c1` [Compound 272, (2-Benzylquinazolino-4-yl)-(2,4-dimethoxybenzyl)-amine], for which the “AMPK activity (degree of phosphorylation of serine-79 and threonine-172)” value with AMPK is reported as 3.4. In addition, the Glucose absorption in the experiment with C2C12 muscle cells is 0.4.

For `COc1cccc(CNc2nc(C(OC)c3ccccc3)nc3ccccc23)c1` (stereo not drawn) [Compound 361, (3-Methoxybenzyl)-[2-(methoxyphenylmethyl)-quinazolino-4-yl]-amine], in the experiment on AMPK, the “AMPK activity (degree of phosphorylation of serine-79 and threonine-172)” value is 2.1. In addition, in the experiment with C2C12 muscle cells, the Glucose absorption was 1.3.

Take `O=[N+]([O-])c1cccc(CNc2nc(-c3ccccc3)nc3ccccc23)c1` [Compound 116, (3-Nitrobenzyl)-(2-phenylquinazolino-4-yl)-amine]: in the experiment on AMPK, the “AMPK activity (degree of phosphorylation of serine-79 and threonine-172)” value came to 2.0; the “AMPK activity (class: degree of phosphorylation of threonine-172)” value is recorded as “strong (“strong” means that the degree of phosphorylation of threonine-172 increased by 3 times or more)”. The molecule further showed a Glucose absorption in the experiment with C2C12 muscle cells of 2.5.

Consider `CCC(CC)Nc1nc(-c2ccccc2)nc2ccccc12` [Compound 121, (1-Ethylpropyl)-(2-phenylquinazolino-4-yl)-amine], for which, in the experiment with AMPK, the “AMPK activity (degree of phosphorylation of serine-79 and threonine-172)” value amounted to 2.2; the “AMPK activity (class: degree of phosphorylation of threonine-172)” value is “strong (“strong” means that the degree of phosphorylation of threonine-172 increased by 3 times or more)”. The Glucose absorption in the experiment with C2C12 muscle cells was 2.4.

In the case of `COc1ccc(CNc2nc(N3CCOCC3)nc3ccccc23)c(OC)c1` [Compound 293, (2,4-Dimethoxybenzyl)-(2-morpholino-4-ylquinazolino-4-yl)-amine], in the experiment on AMPK, the “AMPK activity (degree of phosphorylation of serine-79 and threonine-172)” value worked out at 0.1. Moreover, in the experiment on C2C12 muscle cells, the Glucose absorption was found to be 0.6.

For `CCCc1nc(NCc2ccc3c(c2)OCO3)c2ccccc2n1` [Compound 396, Benzo[1,3]dioxol-5-ylmethyl-(2-propylquinazolino-4-yl)-amine], the “AMPK activity (degree of phosphorylation of serine-79 and threonine-172)” value in the experiment with AMPK came to 7.3. The same molecule registered a Glucose absorption in the experiment on C2C12 muscle cells of 1.3.

For the molecule `COc1ccc(CNc2nc(N3CCCC3)nc3ccccc23)cc1OC` [Compound 299, (3,4-Dimethoxybenzyl)-(2-pyrrolidino-1-ylquinazolino-4-yl)-amine], the “AMPK activity (degree of phosphorylation of serine-79 and threonine-172)” value in the experiment with AMPK turned out to be 0.6. The molecule also had a Glucose absorption in the experiment on C2C12 muscle cells of 0.8.

For `COc1cc(CNc2nc(N3CCCCC3)nc3ccccc23)cc(OC)c1` [Compound 304, (3,5-Dimethoxybenzyl)-(2-piperidino-1-ylquinazolino-4-yl)-amine], the “AMPK activity (degree of phosphorylation of serine-79 and threonine-172)” value in the experiment on AMPK was 1.4. In the experiment with C2C12 muscle cells, this molecule yielded a Glucose absorption of 0.8.

`c1ccc(-c2nc(NCCN3CCOCC3)c3ccccc3n2)cc1` [Compound 106, (2-Morpholino-4-ylethyl)-(2-phenylquinazolino-4-yl)-amine]: in the experiment on AMPK, the “AMPK activity (degree of phosphorylation of serine-79 and threonine-172)” value is given as 1.3; the “AMPK activity (class: degree of phosphorylation of threonine-172)” value was “mild (“mild” means that the degree of phosphorylation of threonine-172 increased by 1 to 3 times)”. For the same molecule, the Glucose absorption with C2C12 muscle cells amounted to 1.8.

As to `CC(C)CCNc1nc(-c2ccccc2)nc2ccccc12` [Compound 130, (3-Methylbutyl)-(2-phenylquinazolino-4-yl)-amine], in the experiment on AMPK, the “AMPK activity (degree of phosphorylation of serine-79 and threonine-172)” value is 1.8; the “AMPK activity (class: degree of phosphorylation of threonine-172)” value was “strong (“strong” means that the degree of phosphorylation of threonine-172 increased by 3 times or more)”. The same molecule showed a Glucose absorption in the experiment on C2C12 muscle cells of 2.2.

Turning to `CCSc1nc(NC(C)CC)c2ccccc2n1` (stereo not drawn) [Compound 20, sec-Butyl-(2-ethylsulfanylquinazolino-4-yl)-amine], the “AMPK activity (class: degree of phosphorylation of threonine-172)” value in the experiment with AMPK is given as “weak (“weak” means that the degree of phosphorylation of threonine-172 increased by less than 1 time)”. Besides, the Glucose absorption in the experiment with C2C12 muscle cells was determined as 1.9.

Turning to `COc1cccc(CNc2nc(C3CCCCC3)nc3ccccc23)c1` [Compound 200, (2-Cyclohexylquinazolino-4-yl)-(3-methoxybenzyl)-amine], in the experiment with AMPK, the “AMPK activity (degree of phosphorylation of serine-79 and threonine-172)” value came to 1.5; the “AMPK activity (class: degree of phosphorylation of threonine-172)” value is given as “strong (“strong” means that the degree of phosphorylation of threonine-172 increased by 3 times or more)”. The Glucose absorption in the experiment with C2C12 muscle cells came out at 2.7.

As for `CCCc1nc(NCc2cccc(OC)c2OC)c2ccccc2n1` [Compound 397, (2,3-Dimethoxybenzyl)-(2-propylquinazolino-4-yl)-amine], the “AMPK activity (degree of phosphorylation of serine-79 and threonine-172)” value in the experiment on AMPK was 6.5. In the experiment with C2C12 muscle cells, this molecule registered a Glucose absorption of 1.3.

In the case of `COc1ccc(CNc2nc(C)nc3ccccc23)cc1` [Compound 165, (4-Methoxybenzyl)-(2-methylquinazolino-4-yl)-amine], in the experiment on AMPK, the “AMPK activity (degree of phosphorylation of serine-79 and threonine-172)” value is recorded as 5.2; the “AMPK activity (class: degree of phosphorylation of threonine-172)” value is reported as “strong (“strong” means that the degree of phosphorylation of threonine-172 increased by 3 times or more)”. Further, the Glucose absorption in the experiment on C2C12 muscle cells is 2.5.

Turning to `COc1cc(CNc2nc(-c3ccco3)nc3ccccc23)cc(OC)c1OC` [Compound 345, (2-Furano-2-ylquinazolino-4-yl)-(3,4,5-trimethoxybenzyl)-amine], the “AMPK activity (degree of phosphorylation of serine-79 and threonine-172)” value with AMPK is given as 1.1. This molecule also returned a Glucose absorption with C2C12 muscle cells of 1.3.

Turning to `c1ccc2c(NCc3ccc4c(c3)OCO4)ncnc2c1` [Compound 407, Benzo[1,3]dioxol-5-ylmethylquinazolino-4-ylamine], the “AMPK activity (degree of phosphorylation of serine-79 and threonine-172)” value with AMPK is 1.3. The Glucose absorption in the experiment with C2C12 muscle cells turned out to be 1.5.

For the molecule `COc1cccc(CNc2nc(C(C)c3ccccc3)nc3ccccc23)c1` (stereo not drawn) [Compound 372, (3-Methoxybenzyl)-[2-(1-phenylethyl)-quinazolino-4-yl]-amine], in the experiment on AMPK, the “AMPK activity (degree of phosphorylation of serine-79 and threonine-172)” value stood at 6.3. Moreover, the Glucose absorption in the experiment with C2C12 muscle cells worked out at 1.1.

Turning to `COc1cccc(CNc2nc(C)nc3ccccc23)c1` [Compound 164, (3-Methoxybenzyl)-(2-methylquinazolino-4-yl)-amine], in the experiment with AMPK, the “AMPK activity (degree of phosphorylation of serine-79 and threonine-172)” value stood at 1.6; the “AMPK activity (class: degree of phosphorylation of threonine-172)” value was “mild (“mild” means that the degree of phosphorylation of threonine-172 increased by 1 to 3 times)”. This molecule returned a Glucose absorption in the experiment on C2C12 muscle cells of 3.4.

With `Fc1ccc(CNc2nc(-c3ccccc3)nc3ccccc23)c(F)c1` [Compound 134, (2,4-Difluorobenzyl)-(2-phenylquinazolino-4-yl)-amine], in the experiment with AMPK, the “AMPK activity (degree of phosphorylation of serine-79 and threonine-172)” value was 1.8; the “AMPK activity (class: degree of phosphorylation of threonine-172)” value is reported as “strong (“strong” means that the degree of phosphorylation of threonine-172 increased by 3 times or more)”. Besides, the Glucose absorption in the experiment on C2C12 muscle cells is recorded as 2.6.
